# Data taken from patent publication US7700832B2 (priority 2006, dated 2010).
# Entries after “also recorded” stand apart in the source; their conditions may differ. Where two headings read alike, the source gives them in different places.
# What was measured:
# Assay type in all cases: cell-based
# [1] = test system: Fusarium verticillioides (FVE)
# [2] = test system: Fusarium graminearum (FGR); details: for antifungal activity against FGR: polypeptide, standard plate assay, 4,000 spores per mL, ¼× potato dextrose broth, 28° C., 24 to 48 hours, scored with inverted microscope
# [3] = test system: Colletotrichum graminicola (CGR); details: polypeptide, standard plate assay, 4,000 spores per mL, ¼× Czapec-Dox V8, 28° C., 24 to 48 hours, scored with inverted microscope
# [4] = test system: Diplodia maydis (DMA); details: polypeptide, standard plate assay, 6,000 spores per mL, ¼× potato dextrose broth, 28° C., 24 to 48 hours, scored with inverted microscope
Substance,antifungal activity against FVE [1],"antifungal activity against FGR (HPLC fraction screen) ([2]; dried HPLC fractions, 4,000 spores/mL in ¼× potato dextrose broth, 27° C. for 24 hours)",antifungal activity against FGR [2],antifungal activity against FGR ([2]; listed as SEQ ID NO: 1),antifungal activity against CGR [3],antifungal activity against CGR ([3]; listed as SEQ ID NO: 1),antifungal activity against DMA [4],antifungal activity against DMA ([4]; listed as SEQ ID NO: 1),antifungal activity against FVE (HPLC fraction screen) [1]
"SEQ ID NO:1: mature antifungal polypeptide LB-09812, 33 amino acids, from Penicillium glandicola fermentation broth; also expressed in E. coli and HPLC-purified (ALHNSCSHPRCFNHAHCLTYSHCHVCSSRKRCL; PEPTIDE (1)...(33) Predicted mature LB-09812 peptide; listed as Penicillium glandicola)",exhibited antifungal activity; also recorded: display antifungal activity,found to have activity,display antifungal activity,exhibited antifungal activity,display antifungal activity,exhibited antifungal activity,display antifungal activity,exhibited antifungal activity,–
SEQ ID NO:3: mature antifungal polypeptide LB-12922 isolated from Penicillium citreonigrum fermentation broth (LSCYPSCMQNYCSHPRCFLHATCLSYSHCHVCGTRKVCL; PEPTIDE (1)...(39) Predicted mature LB-12922 peptide; listed as Penicillium citreonigrum),display antifungal activity,–,display antifungal activity,–,display antifungal activity,–,display antifungal activity,–,found to have activity
